The data set in a line: Solubility determination in oil (Table 10). Conditions: thermodynamic from solid; for solubility at 24 h: 25 °C, Obs. Temp. 25 °C; for solubility thermodynamic / solubility: 40 °C, Obs. Temp. 40 °C; for solubility thermodynamic: water, Equilibrium solubility: Water. Here is the method:
A known amount of test substance (˜40 mg) was weighed into the vial, 100 μL of oil was added and heated to 60° C. and then system was slurried to reach equilibrium. […] Extra oil was added into the vial once compound precipitated out and then the system was re-equilibrated at 1000 rpm at room temperature (25° C.). Final concentration was determined by HPLC method as described below in Table 6a and 6b.

The mark [1] stands for this setting: oil or lipid, Approximate Solubility in Excipient: Cottonseed oil, Heating Temp. 60 °C.
Setting [2] is: oil or lipid, Approximate Solubility in Excipient: Sesame oil, Heating Temp. 60 °C.
[3] abbreviates: oil or lipid, Approximate Solubility in Excipient: Castor oil, Heating Temp. 40 °C.
Where [4] appears, read: oil or lipid, Approximate Solubility in Excipient: Cottonseed oil, Heating Temp. 40 °C.
Setting [5] is: oil or lipid, Approximate Solubility in Excipient: Sesame oil, Heating Temp. 40 °C.
The mark [6] stands for this setting: organic solvent or mixture, Approximate Solubility in Excipient: Ethanol, Heating Temp. 40 °C.

Values after ≈ are worked out from the molar mass of the structure shown.

One may read the solubility as the dissolved amount per volume that the medium holds. As a reminder, the solubility (thermodynamic) is solubility found after equilibrating the solid with the medium.

For `CCCCCCCCCCCCCCOC(=O)OCOc1ccc2c3c1O[C@H]1C(=O)CC[C@@]4(O)C(C2)N(CC2CC2)CC[C@]314` [Compound 27, (((4aS,7aR,12bS)-3-(cyclopropylmethyl)-4a-hydroxy-7-oxo-2,3,4,4a,5,6,7,7a-octahydro-1H-4,12-methanobenzofuro[3,2-e]isoquinolin-9-yl)oxy)methyl tetradecyl carbonate], the solubility at 24 h is above 395 mg/mL under setting [1] and above 399 mg/mL under setting [2]. This compound also gave a thermodynamic solubility (Heating Temp. 40 °C) below 0.001 mg/mL.

For the compound `CCCCCCCCCCCCCCCC(=O)OCOc1ccc2c3c1O[C@H]1C(=O)CC[C@@]4(O)C(C2)N(CC2CC2)CC[C@]314` [Compound 49, (((4aS,7aR,12bS)-3-(cyclopropylmethyl)-4a-hydroxy-7-oxo-2,3,4,4a,5,6,7,7a-octahydro-1H-4,12-methanobenzofuro[3,2-e]isoquinolin-9-yl)oxy)methyl hexadecanoate], the solubility at 24 h is, setting by setting: under setting [1], below 50 mg/mL; under setting [2], below 51 mg/mL. This compound also came in with a thermodynamic solubility (Heating Temp. 40 °C) of 0.028 mg/mL (≈ 0.0459 mM).

Turning to `CCCCCCCCCCCC(=O)OCOc1ccc2c3c1O[C@H]1C(=O)CC[C@@]4(O)C(C2)N(CC2CC2)CC[C@]314` [Compound 48, (((4aS,7aR,12bS)-3-(cyclopropylmethyl)-4a-hydroxy-7-oxo-2,3,4,4a,5,6,7,7a-octahydro-1H-4,12-methanobenzofuro[3,2-e]isoquinolin-9-yl)oxy)methyl dodecanoate], the solubility at 24 h reads like this: under setting [1], above 410 mg/mL; under setting [2], above 405 mg/mL. In addition, the thermodynamic solubility (Heating Temp. 40 °C) stood at 0.003 mg/mL (≈ 0.00542 mM).

On to `C=C1CC[C@@]2(O)C3Cc4ccc(OC(=O)CCCCCCC/C=C\CCCCCCCC)c5c4[C@@]2(CCN3CC2CC2)[C@H]1O5` [Compound 36, (4aS,7aS,12bS)-3-(cyclopropylmethyl)-4a-hydroxy-7-methylene-2,3,4,4a,5,6,7,7a-octahydro-1H-4,12-methanobenzofuro[3,2-e]isoquinolin-9-yl oleate], for which the solubility at 24 h is, setting by setting: under setting [1], above 407 mg/mL; under setting [2], above 408 mg/mL. In addition, the solubility was above 217 mg/mL under setting [3], above 419 mg/mL under setting [4], above 412 mg/mL under setting [5] and 20 to 30 mg/mL (≈ 33.1 to 49.7 mM) under setting [6]. Moreover, the thermodynamic solubility (Heating Temp. 40 °C) came out at 0.005 mg/mL (≈ 0.00828 mM).

Turning to `CCCCCCCC/C=C/CCCCCCCC(=O)OCOc1ccc2c3c1O[C@H]1C(=O)CC[C@@]4(O)C(C2)N(CC2CC2)CC[C@]314` [Compound 26, (((4aS,7aR,12bS)-3-(cyclopropylmethyl)-4a-hydroxy-7-oxo-2,3,4,4a,5,6,7,7a-octahydro-1H-4,12-methanobenzofuro[3,2-e]isoquinolin-9-yl)oxy)methyl (E)-octadec-9-enoate], the solubility at 24 h is, setting by setting: under setting [1], 204 to 239 mg/mL (≈ 321 to 376 mM); under setting [2], below 354 mg/mL. For the same compound, the solubility (thermodynamic) (Heating Temp. 40 °C) was below 0.001 mg/mL.

In the case of `CCCCCCCCCCCCCCCCCCCC(=O)Oc1ccc2c3c1O[C@H]1C(=O)CC[C@@]4(O)C(C2)N(CC2CC2)CC[C@]314` [Compound 50, (4aS,7aR,12bS)-3-(cyclopropylmethyl)-4a-hydroxy-7-oxo-2,3,4,4a,5,6,7,7a-octahydro-1H-4,12-methanobenzofuro[3,2-e]isoquinolin-9-yl icosanoate], the solubility at 24 h is below 51 mg/mL under setting [1] and below 52 mg/mL under setting [2]. For the same compound, the solubility (thermodynamic) (Heating Temp. 40 °C) is below 0.001 mg/mL.

On to `C=C1CC[C@@]2(O)C3Cc4ccc(OC(=O)CCCCCCC/C=C\C/C=C\C/C=C\CC)c5c4[C@@]2(CCN3CC2CC2)[C@H]1O5` [Compound 20, (4aS,7aS,12bS)-3-(cyclopropylmethyl)-4a-hydroxy-7-methylene-2,3,4,4a,5,6,7,7a-octahydro-1H-4,12-methanobenzofuro[3,2-e]isoquinolin-9-yl (9Z,12Z,15Z)-octadeca-9,12,15-trienoate], for which the solubility at 24 h lay in the range of 68 to 82 mg/mL (≈ 113 to 137 mM) under setting [1] and 80 to 100 mg/mL (≈ 133 to 167 mM) under setting [2]. For the same compound, the solubility was above 414 mg/mL under setting [4], above 406 mg/mL under setting [5] and 157 to 197 mg/mL (≈ 262 to 328 mM) under setting [6]. Besides, the thermodynamic solubility (Heating Temp. 40 °C) was below 0.0002 mg/mL.

As to `C=C1CC[C@@]2(O)C3Cc4ccc(OC(=O)CCC5CCCC5)c5c4[C@@]2(CCN3CC2CC2)[C@H]1O5` [Compound 39, (4aS,7aS,12bS)-3-(cyclopropylmethyl)-4a-hydroxy-7-methylene-2,3,4,4a,5,6,7,7a-octahydro-1H-4,12-methanobenzofuro[3,2-e]isoquinolin-9-yl 3-cyclopentylpropanoate], the solubility at 24 h is 104 to 139 mg/mL (≈ 224 to 300 mM) under setting [1] and 106 to 141 mg/mL (≈ 229 to 304 mM) under setting [2]. Moreover, the solubility was above 218 mg/mL under setting [3], 225 to 402 mg/mL (≈ 485 to 868 mM) under setting [4], above 400 mg/mL under setting [5] and 150 to 200 mg/mL (≈ 324 to 431 mM) under setting [6]. This compound also registered a thermodynamic solubility (Heating Temp. 40 °C) of 0.018 mg/mL (≈ 0.0388 mM).

For `C=C1CC[C@@]2(O)C3Cc4ccc(OC(=O)OCCCCCCCCCCCCCCCCCCCC)c5c4[C@@]2(CCN3CC2CC2)[C@H]1O5` [Compound 28, (4aS,7aS,12bS)-3-(cyclopropylmethyl)-4a-hydroxy-7-methylene-2,3,4,4a,5,6,7,7a-octahydro-1H-4,12-methanobenzofuro[3,2-e]isoquinolin-9-yl icosyl carbonate], the solubility at 24 h runs as follows: under setting [1], below 50.2 mg/mL; under setting [2], below 50.6 mg/mL. The compound further gave a solubility (thermodynamic) (Heating Temp. 40 °C) below 0.001 mg/mL.

Regarding `CC(C)(C)CC(=O)Oc1ccc2c3c1O[C@H]1C(=O)CC[C@@]4(O)C(C2)N(CC2CC2)CC[C@]314` [Compound 42, (4aS,7aR,12bS)-3-(cyclopropylmethyl)-4a-hydroxy-7-oxo-2,3,4,4a,5,6,7,7a-octahydro-1H-4,12-methanobenzofuro[3,2-e]isoquinolin-9-yl 3,3-dimethylbutanoate], the solubility was below 51 mg/mL under setting [4]; below 26 mg/mL under setting [1]; below 52 mg/mL under setting [5]; below 25.8 mg/mL under setting [2]; 78 to 93 mg/mL (≈ 177 to 212 mM) under setting [6]. The thermodynamic solubility was 0.245 mg/mL (≈ 0.557 mM) (Heating Temp. 40 °C) and 0.068 mg/mL (≈ 0.155 mM) (Heating Temp. 60 °C).

For the compound `C=C1CC[C@@]2(O)C3Cc4ccc(OC(=O)CCCCCCC/C=C\C/C=C\CCCCC)c5c4[C@@]2(CCN3CC2CC2)[C@H]1O5` [Compound 37, (4aS,7aS,12bS)-3-(cyclopropylmethyl)-4a-hydroxy-7-methylene-2,3,4,4a,5,6,7,7a-octahydro-1H-4,12-methanobenzofuro[3,2-e]isoquinolin-9-yl (9Z,12Z)-octadeca-9,12-dienoate], the solubility at 24 h is, setting by setting: under setting [1], 68.5 to 82 mg/mL (≈ 114 to 136 mM); under setting [2], 80 to 102 mg/mL (≈ 133 to 169 mM). Besides, the solubility under setting [3] is above 226 mg/mL, the solubility under setting [4] is above 405 mg/mL, the solubility under setting [5] is above 408 mg/mL and the solubility under setting [6] was in the range of 75 to 90 mg/mL (≈ 125 to 150 mM). The thermodynamic solubility (Heating Temp. 40 °C) is 0.002 mg/mL (≈ 0.00332 mM).

As for `C=C1CC[C@@]2(O)C3Cc4ccc(OC(=O)CC(C)(C)C)c5c4[C@@]2(CCN3CC2CC2)[C@H]1O5` [Compound 38, (4aS,7aS,12bS)-3-(cyclopropylmethyl)-4a-hydroxy-7-methylene-2,3,4,4a,5,6,7,7a-octahydro-1H-4,12-methanobenzofuro[3,2-e]isoquinolin-9-yl 3,3-dimethylbutanoate], the solubility under setting [3] is above 248 mg/mL, the solubility under setting [4] is above 407 mg/mL, the solubility under setting [5] fell in the range of 230 to 411 mg/mL (≈ 526 to 939 mM) and the solubility under setting [6] was 160 to 200 mg/mL (≈ 366 to 457 mM). Besides, the thermodynamic solubility by setting is: (Heating Temp. 40 °C) 0.617 mg/mL (≈ 1.41 mM); (Heating Temp. 60 °C) 0.21 mg/mL (≈ 0.48 mM).

As to `CCCCCCCCCCCCCCCCOC(=O)OCOc1ccc2c3c1O[C@H]1C(=O)CC[C@@]4(O)C(C2)N(CC2CC2)CC[C@]314` [Compound 47, (((4aS,7aR,12bS)-3-(cyclopropylmethyl)-4a-hydroxy-7-oxo-2,3,4,4a,5,6,7,7a-octahydro-1H-4,12-methanobenzofuro[3,2-e]isoquinolin-9-yl)oxy)methyl hexadecyl carbonate], the solubility at 24 h was above 406 mg/mL under setting [1] and above 405 mg/mL under setting [2]. Also, the thermodynamic solubility (Heating Temp. 40 °C) is below 0.001 mg/mL.

`CCCCCCCC/C=C\CCCCCCCCCCCC(=O)Oc1ccc2c3c1O[C@H]1C(=O)CC[C@@]4(O)C(C2)N(CC2CC2)CC[C@]314` [Compound 22, (4aS,7aR,12bS)-3-(cyclopropylmethyl)-4a-hydroxy-7-oxo-2,3,4,4a,5,6,7,7a-octahydro-1H-4,12-methanobenzofuro[3,2-e]isoquinolin-9-yl (Z)-docos-13-enoate]: the solubility at 24 h reads like this: under setting [1], 67 to 80 mg/mL (≈ 101 to 121 mM); under setting [2], 67 to 80 mg/mL (≈ 101 to 121 mM). For the same compound, the solubility is, setting by setting: under setting [1], above 406 mg/mL; under setting [2], above 402 mg/mL; (organic solvent or mixture, Approximate Solubility in Excipient: Ethanol, Heating Temp. 60 °C) above 398 mg/mL. Moreover, for the setting “Heating Temp. 60 °C”, the solubility (thermodynamic) came out at 0.0314 mg/mL (≈ 0.0474 mM).

As to `C=C1CC[C@@]2(O)C3Cc4ccc(OC(=O)CCCCCCCCCCCCCCCCC)c5c4[C@@]2(CCN3CC2CC2)[C@H]1O5` [Compound 12, (4aS,7aS,12bS)-3-(cyclopropylmethyl)-4a-hydroxy-7-methylene-2,3,4,4a,5,6,7,7a-octahydro-1H-4,12-methanobenzofuro[3,2-e]isoquinolin-9-yl stearate], the solubility at 24 h by setting is: under setting [1], below 51 mg/mL; under setting [2], below 50 mg/mL. The solubility by setting is: under setting [4], 100 to 120 mg/mL (≈ 165 to 198 mM); under setting [1], above 398 mg/mL; under setting [5], 70 to 95 mg/mL (≈ 116 to 157 mM); under setting [2], above 411 mg/mL; under setting [6], 65 to 75 mg/mL (≈ 107 to 124 mM). Where the note is “Heating Temp. 40 °C”, this compound gave a thermodynamic solubility of 0.043 mg/mL (≈ 0.071 mM).

Values taken from patent US20190308988A1, “OPIOID RECEPTOR ANTAGONIST PRODRUGS” (Nirsum Laboratories, Inc., priority 2017, published 2019).
